According to US20240315242A1, “Antibacterial Compound” (LG Chem, Ltd., priority 2021, published 2024):

System: E. coli (ATCC 25922)
Test: Evaluation of antibacterial property against E. coli (absorbance at 600 nm)
Assay type: cell-based, Escherichia coli
Details: injection amount of compound 0.01 g in 25 mL nutrient broth with E. coli ATCC 25922 at 3000 CFU/mL; 16 hours at 35° C.; absorbance at 600 nm vs pure culture medium
Experimental: [formula] • in the equation, • As(Asample) represents absorbance of the culture medium containing the bacteriostatic substance at a wavelength of 600 nm, and • A0(Areference) represents absorbance of the pure culture medium without the bacteriostatic substance at a wavelength of 600 nm.
(1) Evaluation of Antibacterial Property Against E. coli
25 mL of a nutrient broth culture medium inoculated with E. coli (ATCC 25922) at 3000 CFU/mL was transferred to a 50 ml conical tube, and then the antibacterial compounds (bacteriostatic substances) prepared in Preparation Examples and Comparative Preparation Examples were injected in each amount described in Table 2 below, followed by sufficiently mixing. Thereafter, incubation was performed for 16 hours in a shaking incubator (Visiontech, VS-37SIF) maintained at 35° C.
The incubated solution was diluted to ⅕ using 1×PBS buffer solution, and absorbance at the wavelength of 600 nm was measured for the diluted solution using a UV-Vis Spectrophotometer (K Lab, Optizen POP). In addition, E. coli (ATCC 25922) was cultured in a pure culture medium without the antibacterial compound for 16 hours in a shaking incubator (VISION TECH, VS-37SIF) maintained at 35° C., which was prepared as a control, and absorbance at the wavelength of 600 nm was measured in the same manner as above.
Then, antibacterial rates (%) of E. coli (ATCC 25922) were calculated according to the following Equation 1, and the results are shown in Table 2 below.
[formula] • in the equation, • As(Asample) represents absorbance of the culture medium containing the bacteriostatic substance at a wavelength of 600 nm, and • A0(Areference) represents absorbance of the E. coli pure culture medium without the bacteriostatic substance at a wavelength of 600 nm.

| SMILES | Antibacterial rate (%) |
| --- | --- |
| C=CC(=O)OCC[N+](C)(C)CCCCCCCC [Compound 6] | 70.6% |
| C=CC(=O)OCC[N+](C)(C)CCCCCCCC [Compound E, reference compound] | 62.3% |
| C=CC(=O)OCC[N+](C)(C)CCCCCCCCCCCC [Compound 3] | 97.3% |
| C=C(C)C(=O)OCC[N+](C)(C)CCCCCCCCCCCC [Compound 2] | 98.1% |
| C=C(C)C(=O)OCC[N+](C)(C)CCCCCCCCCC [Compound 1] | 95.3% |
| C=CC(=O)OCC[N+](C)(C)CCCCCCCCCC [Compound 5] | 95.8% |
| C=C(C)C(=O)OCC[N+](C)(C)CCCCCCCC [Compound B, reference compound] | 69.2% |
